{"source": "patent US20050256131A1", "about": "“Pharmaceutical active substance combination and the use thereof” (priority 2002, published 2005)", "key": {"Parkinson's disease": {"tested_on": "Parkinson's disease", "assay": "clinical studies / series of tests on parkinsonian patients", "format": "in vivo, human", "settings": "for influence of additional intake on the effect of nefazodone or trazodone: taken in addition to nefazodone or trazodone; for antidepressant effect in parkinsonian patients: especially those treated in parallel with dopamine-containing medicaments; for necessary dose of dopamine to be taken: parkinsonian patients taking dopamine as supplement; for depot effect / release of the additionally taken dopamine in the patient's body: patients taking dopamine at the same time", "method": "The tablets normally comprise the active substance in an amount of 100 mg or 200 mg. […] For example, if a total dose of 500 mg a day is intended, it is possible to take 200 mg in the morning, 200 mg at midday and 100 mg in the evening.\nThe medicament with the active substance trazodone was administered to the patients in the evening. […] However, to date, for the aforementioned reasons, the patients have been given the dopamine to be administered in the evening in conjunction with a depot composition."}, "[1]": {"settings": "cited from earlier work; for side effects affecting the nervous system / psychomotor performance: manufacturer's information for use or statements in the literature"}}, "note": "“Also recorded” adds a separate entry of the source.", "data": [{"smiles": "CC(=O)Oc1ccccc1C(=O)O", "note": "[acetylsalicylic acid]", "values": [{"measurement": "influence of additional intake on the effect of nefazodone or trazodone", "setting": "Parkinson's disease; parkinsonian patients", "result": "can also assist the mentioned positive effects of nefazodone"}]}, {"smiles": "Cn1c(=O)c2c(ncn2C)n(C)c1=O", "note": "[caffeine]", "values": [{"measurement": "influence of additional intake on the effect of nefazodone or trazodone", "setting": "Parkinson's disease; parkinsonian patients", "result": "assists the mentioned positive effect of nefazodone"}]}, {"smiles": "O=C(O)COCCN1CCN(C(c2ccccc2)c2ccc(Cl)cc2)CC1", "note": "(centres unmarked) [cetirizine]", "values": [{"measurement": "therapeutic effect in the treatment of the symptoms of Parkinson's disease", "setting": "Parkinson's disease; parkinsonian patients", "result": "particularly good effect"}, {"measurement": "influence of additional intake on the effect of nefazodone or trazodone", "setting": "Parkinson's disease; parkinsonian patients", "result": "enhances the effect of the nefazodone or trazodone"}, {"measurement": "central sedative effect", "setting": "[1]; compared with other antihistamines, statements in the literature", "result": "only a slight central sedative effect"}, {"measurement": "side effects affecting the nervous system / psychomotor performance", "setting": "[1]", "result": "reduction in psychomotor performance"}]}, {"smiles": "CCc1nn(CCCN2CCN(c3cccc(Cl)c3)CC2)c(=O)n1CCOc1ccccc1", "note": "[nefazodone, 2-[3-[4-(3-chlorophenyl)-1-piperazinyl]propyl]-5-ethyl-4-(2-phenoxyethyl)-2H-1,2,4-triazol-3(4H)-one]", "values": [{"measurement": "antidepressant effect in parkinsonian patients", "setting": "Parkinson's disease", "result": "particularly evident"}, {"measurement": "tolerability", "setting": "Parkinson's disease; human, in vivo", "result": "generally well tolerated"}, {"measurement": "daily dopamine dose as fraction of dose before treatment", "setting": "Parkinson's disease; one patient with disease in advanced stage", "result": "about one third"}, {"measurement": "therapeutic effect in the treatment of the symptoms of Parkinson's disease", "setting": "Parkinson's disease; parkinsonian patients", "result": "exceptionally good therapeutic effect"}, {"measurement": "dopamine dose necessary on additional intake, relative to dose previously necessary on treatment with dopamine alone", "setting": "Parkinson's disease; parkinsonian patients regularly taking L-dopamine, simultaneous intake of nefazodone", "result": "one half or even one third"}, {"measurement": "necessary dose of dopamine to be taken", "setting": "Parkinson's disease", "result": "reduction in the necessary dose of dopamine"}, {"measurement": "side effect of dopamine: uncontrolled motor activity in the patient", "setting": "Parkinson's disease; patients on Parkinson's medicaments comprising dopamine", "result": "positively influenced"}, {"measurement": "depot effect / release of the additionally taken dopamine in the patient's body", "setting": "Parkinson's disease", "result": "released more slowly"}, {"measurement": "side effects affecting the nervous system / psychomotor performance", "setting": "[1]", "result": "impairments of the coordination of movements (ataxia) and slowing of movements"}]}, {"smiles": "O=c1n(CCCN2CCN(c3cccc(Cl)c3)CC2)nc2ccccn12", "note": "[trazodone, 2-[3-[4-(3-chlorophenyl)-1-piperazinyl]propyl]-1,2,4-triazolo[4,3-a]pyridin-3(2H)-one]", "values": [{"measurement": "antidepressant effect in parkinsonian patients", "setting": "Parkinson's disease", "result": "particularly evident"}, {"measurement": "therapeutic effect in the treatment of the symptoms of Parkinson's disease", "setting": "Parkinson's disease; parkinsonian patients", "result": "exceptionally good therapeutic effect"}, {"measurement": "tiredness / sleep-promoting effect after intake", "setting": "Parkinson's disease; parkinsonian patients", "result": "causes a certain tiredness; also recorded: sleep-promoting effect"}, {"measurement": "necessary dose of dopamine to be taken", "setting": "Parkinson's disease", "result": "reduction in the necessary dose of dopamine"}, {"measurement": "depot effect / release of the additionally taken dopamine in the patient's body", "setting": "Parkinson's disease", "result": "causes a depot effect"}]}]}
